± gives the expanded uncertainty stated by the source.
Tests used:
[1] = 298.15 K; 101.33 kPa; Liquid; Vibrating tube method
[2] = refractive index (Na D-line) (dimensionless); conditions: 298.15 K; 101.33 kPa; Liquid; Standard Abbe refractometry

Question: Which mass density [1] does the source give for CCCC[n+]1cccc(C)c1.O=S(=O)([N-]S(=O)(=O)C(F)(F)F)C(F)(F)F here?
Answer: 1414.76 ± 0.6 kg/m3

Question: What about the refractive index [2] of the same molecule?
Answer: 1.44595 ± 0.0007

Question: Which mass density [1] does the source give for CCCC[n+]1cccc(C)c1.O=S(=O)([O-])C(F)(F)F [1-butyl-3-methylpyridinium trifluoromethanesulfonate] here?
Answer: 1279.77 ± 0.47 kg/m3

Question: What about the refractive index [2] of the same molecule?
Answer: 1.46138 ± 0.0007

Question: Which results are given for CCCC[n+]1ccn(C)c1.O=S(=O)([N-]S(=O)(=O)C(F)(F)F)C(F)(F)F?
Answer: mass density [1]: 1436.1 ± 0.62 kg/m3; refractive index [2]: 1.42672 ± 0.0007

Question: With CCO [ethanol] as the molecule, how does the mass density [1] read?
Answer: 785.44 ± 0.13 kg/m3

Question: And the refractive index [2]?
Answer: 1.35936 ± 0.00068

Question: Which mass density [1] does the source give for CCn1cc[n+](C)c1.O=S(=O)([N-]S(=O)(=O)C(F)(F)F)C(F)(F)F here?
Answer: 1518.74 ± 0.7 kg/m3

Question: What about the refractive index [2] of the same molecule?
Answer: 1.42307 ± 0.0007

Question: Which results are given for CCCCCC [hexane]?
Answer: mass density [1]: 655.2 ± 0.26 kg/m3; refractive index [2]: 1.37241 ± 0.0007

From the NIST ThermoML archive (doi:10.1016/j.jct.2012.06.028)
